PMC10218303, “Novel Polymyxin-Inspired Peptidomimetics Targeting the SARS-CoV-2 Spike:hACE2 Interface” (International Journal of Molecular Sciences, 2023)
Where two headings read alike, the source gives them in different places. Bridge positions count the residues as written; N and C are the ends. Square brackets hold non-standard residues; d marks the D form. Peptide text beside a SMILES is read from it. Dab = NCC[C@H](N)C(=O)O

Experiments:
[1] = amide bond, 23-membered ring
[2] = system: SARS-CoV-2 (strain Delta); experiment: microbe, parasite or virus in culture; settings: Severe acute respiratory syndrome coronavirus 2, 120 h, read-out: IC50 Delta
in vitro [3] = settings: human
[4] = system: SARS-CoV-2 (strain Delta); settings: for IC50: strain Delta, 2 h
[5] = system: SARS-CoV-2 (strain 20A.EU2); settings: strain 20A.EU2, 2 h
in vitro [6] = settings: human; remark: listed apart in the source
[7] = the molecule shown is the open-chain precursor

Molecule | CC50 (in vitro [3]) [µM] | IC50 [4] [µM] | IC50 [5] [µM] | CC50 (in vitro [6]) [µM] | further results
CC(C)C[C@@H]1NC(=O)[C@@H](Cc2ccccc2)NC(=O)[C@H](Cc2ccc(OC(C)(C)C)cc2)NC(=O)[C@@H](NC(=O)[C@H](CCNC(=O)OC(C)(C)C)NC(=O)OCC2c3ccccc3-c3ccccc32)CCNC(=O)[C@H]([C@@H](C)OC(C)(C)C)NC(=O)[C@H](CCNC(=O)OC(C)(C)C)NC(=O)[C@H](Cc2cn(C(=O)OC(C)(C)C)c3ccccc23)NC1=O | – | – | – | – | ring closure, isolated yield ([1]; from Fmoc-Dab(Boc)-Dab-Tyr(tBu)-dPhe-Leu-Trp(Boc)-Dab(Boc)-Thr(tBu)-OH?, HATU/HOAt/2,4,6-collidine, DCM/DMF, 0.71 mM): 87%
CC(C)C[C@@H]1NC(=O)[C@@H](Cc2ccccc2)NC(=O)[C@H](Cc2ccc(OC(C)(C)C)cc2)NC(=O)[C@@H](NC(=O)[C@H](CCOC(c2ccccc2)(c2ccccc2)c2ccccc2)NC(=O)OCC2c3ccccc3-c3ccccc32)CCNC(=O)[C@H]([C@@H](C)OC(C)(C)C)NC(=O)[C@H](CCNC(=O)OC(C)(C)C)NC(=O)[C@H](Cc2cn(C(=O)OC(C)(C)C)c3ccccc23)NC1=O | – | – | – | – | ring closure, isolated yield ([1]; from Fmoc-Hse(Trt)-Dab-Tyr(tBu)-dPhe-Leu-Trp(Boc)-Dab(Boc)-Thr(tBu)-OH?, HATU/HOAt/2,4,6-collidine, DCM/DMF, 0.7 mM): 70%
CC(C)C[C@@H]1NC(=O)[C@@H](Cc2ccccc2)NC(=O)[C@H](Cc2ccc(OC(C)(C)C)cc2)NC(=O)[C@@H](NC(=O)[C@H](CCOC(c2ccccc2)(c2ccccc2)c2ccccc2)NC(=O)OCC2c3ccccc3-c3ccccc32)CCNC(=O)[C@H]([C@@H](C)OC(C)(C)C)NC(=O)[C@H](CCOC(c2ccccc2)(c2ccccc2)c2ccccc2)NC(=O)[C@H](Cc2cn(C(=O)OC(C)(C)C)c3ccccc23)NC1=O | – | – | – | – | ring closure, isolated yield ([1]; from Fmoc-Hse(Trt)-Dab-Tyr(tBu)-dPhe-Leu-Trp(Boc)-Hse(Trt)-Thr(tBu)-OH?, HATU/HOAt/2,4,6-collidine, DCM/DMF, 0.7 mM): 63%
CC(C)C[C@@H]1NC(=O)[C@@H](Cc2ccccc2)NC(=O)[C@H](Cc2cn(C(=O)OC(C)(C)C)c3ccccc23)NC(=O)[C@@H](NC(=O)[C@H](CCNC(=O)OC(C)(C)C)NC(=O)OCC2c3ccccc3-c3ccccc32)CCNC(=O)[C@H]([C@@H](C)OC(C)(C)C)NC(=O)[C@H](CCNC(=O)OC(C)(C)C)NC(=O)[C@H](Cc2cn(C(=O)OC(C)(C)C)c3ccccc23)NC1=O | – | – | – | – | ring closure, isolated yield ([1]; from Fmoc-Dab(Boc)-Dab-Trp(Boc)-dPhe-Leu-Trp(Boc)-Dab(Boc)-Thr(tBu)-OH?, HATU/HOAt/2,4,6-collidine, DCM/DMF, 0.7 mM): 70%
CC(C)C[C@H](NC(=O)OCC1c2ccccc2-c2ccccc21)C(=O)N[C@H]1CCNC(=O)[C@H]([C@@H](C)OC(C)(C)C)NC(=O)[C@H](CCNC(=O)OC(C)(C)C)NC(=O)[C@H](CCNC(=O)OC(C)(C)C)NC(=O)[C@H](CC(C)C)NC(=O)[C@@H](Cc2ccccc2)NC(=O)[C@H](Cc2cn(C(=O)OC(C)(C)C)c3ccccc23)NC1=O | – | – | – | – | ring closure, isolated yield ([1]; from Fmoc-Leu-Dab-Trp(Boc)-dPhe-Leu-Dab(Boc)-Dab(Boc)-Thr(tBu)-OH?, HATU/HOAt/2,4,6-collidine, DCM/DMF, 0.7 mM): 78%
CC[C@H](C)[C@@H]1NC(=O)[C@@H](NC(=O)[C@H](CCNC(=O)OC(C)(C)C)NC(=O)[C@@H](NC(=O)[C@H](CC(C)C)NC(C)=O)[C@@H](C)OC(C)(C)C)CCNC(=O)[C@H](CN=[N+]=[N-])NC(=O)[C@H](CCNC(=O)OC(C)(C)C)NC(=O)[C@H](CCNC(=O)OC(C)(C)C)NC(=O)[C@H](Cc2ccc(OC(C)(C)C)cc2)NC(=O)[C@@H](Cc2ccccc2)NC1=O | – | – | – | – | ring closure, isolated yield ([1]; from Ac-Leu-Thr(tBu)-Dab(Boc)-Dab(H-azidoAla)-Ile-dPhe-Tyr(tBu)-Dab(Boc)-Dab(Boc)-OH, HATU/HOAt/2,4,6-collidine, DCM/DMF 14:1, 0.7 mM): 74%
N#C[C@@]1(c2ccc3c(N)ncnn23)O[C@H](CO)[C@@H](O)[C@H]1O [GS-441524, reference compound] | > 40 | – | – | – | IC50 [2]: 2.3 µM
CC[C@H](C)[C@@H]1NC(=O)[C@@H](NC(=O)[C@H](CCN)NC(=O)[C@@H](NC(=O)[C@H](CC(C)C)NC(C)=O)[C@@H](C)O)CCNC(=O)[C@H](Cn2cc(CC(=O)N[C@@H](CCN)C(=O)N[C@H]3CCNC(=O)[C@H]([C@@H](C)O)NC(=O)[C@H](CCN)NC(=O)[C@H](Cc4c[nH]c5ccccc45)NC(=O)[C@H](CC(C)C)NC(=O)[C@@H](Cc4ccccc4)NC(=O)[C@H](Cc4ccc(O)cc4)NC3=O)nn2)NC(=O)[C@H](CCN)NC(=O)[C@H](CCN)NC(=O)[C@H](Cc2ccc(O)cc2)NC(=O)[C@@H](Cc2ccccc2)NC1=O [dimer 3] | > 50 | > 50 | > 50 | > 50 | –
CC[C@H](C)[C@@H]1NC(=O)[C@@H](NC(=O)[C@H](CCN)NC(=O)[C@@H](NC(=O)[C@H](CC(C)C)NC(C)=O)[C@@H](C)O)CCNC(=O)[C@H](Cn2cc(CCC(=O)N[C@@H](CCN)C(=O)N[C@H]3CCNC(=O)[C@H]([C@@H](C)O)NC(=O)[C@H](CCN)NC(=O)[C@H](Cc4c[nH]c5ccccc45)NC(=O)[C@H](CC(C)C)NC(=O)[C@@H](Cc4ccccc4)NC(=O)[C@H](Cc4ccc(O)cc4)NC3=O)nn2)NC(=O)[C@H](CCN)NC(=O)[C@H](CCN)NC(=O)[C@H](Cc2ccc(O)cc2)NC(=O)[C@@H](Cc2ccccc2)NC1=O [dimer 4] | > 50 | > 50 | > 50 | > 50 | –
CC(=O)N[C@@H](CCC(=O)O)C(=O)N[C@H](C(=O)N[C@@H](CCN)C(=O)N[C@H]1CCNC(=O)[C@H](Cn2cc(CC(=O)N[C@@H](CC(C)C)C(=O)N[C@H]3CCNC(=O)[C@H]([C@@H](C)O)NC(=O)[C@H](CCN)NC(=O)[C@H](CCN)NC(=O)[C@H](CC(C)C)NC(=O)[C@@H](Cc4ccccc4)NC(=O)[C@H](Cc4c[nH]c5ccccc45)NC3=O)nn2)NC(=O)[C@H](CCN)NC(=O)[C@H](CCN)NC(=O)[C@H](Cc2ccc(O)cc2)NC(=O)[C@@H](Cc2ccccc2)NC(=O)[C@H](Cc2ccc(O)cc2)NC1=O)[C@@H](C)O [dimer 7] | > 50 | > 50 | > 50 | > 50 | antiviral effect, in words [4]: a hint of antiviral effect
CC(=O)N[C@@H](CCC(=O)O)C(=O)N[C@H](C(=O)N[C@@H](CCN)C(=O)N[C@H]1CCNC(=O)[C@H](Cn2cc(CC(=O)N[C@@H](CCN)C(=O)N[C@H]3CCNC(=O)[C@H]([C@@H](C)O)NC(=O)[C@H](CCN)NC(=O)[C@H](Cc4c[nH]c5ccccc45)NC(=O)[C@H](CC(C)C)NC(=O)[C@@H](Cc4ccccc4)NC(=O)[C@H](Cc4c[nH]c5ccccc45)NC3=O)nn2)NC(=O)[C@H](CCN)NC(=O)[C@H](CCN)NC(=O)[C@H](CC(C)C)NC(=O)[C@@H](Cc2ccccc2)NC(=O)[C@H](Cc2ccc(O)cc2)NC1=O)[C@@H](C)O [dimer 10] | > 50 | > 50 | > 50 | > 50 | –
CC(C)C[C@@H]1NC(=O)[C@@H](Cc2ccccc2)NC(=O)[C@H](Cc2ccc(O)cc2)NC(=O)[C@@H](NC(=O)[C@@H](N)CCN)CCNC(=O)[C@H]([C@@H](C)O)NC(=O)[C@H](CCN)NC(=O)[C@H](Cc2c[nH]c3ccccc23)NC1=O [monomer 1] (H-[Dab][Dab]Y[dF]LW[Dab]T; lactam 2-C) | > 50 | > 50 | > 50 | > 50 | –
CC[C@H](C)[C@@H]1NC(=O)[C@@H](NC(=O)[C@H](CCN)NC(=O)[C@@H](NC(=O)[C@H](CC(C)C)NC(C)=O)[C@@H](C)O)CCNC(=O)[C@H](Cn2cc(CC(=O)O)nn2)NC(=O)[C@H](CCN)NC(=O)[C@H](CCN)NC(=O)[C@H](Cc2ccc(O)cc2)NC(=O)[C@@H](Cc2ccccc2)NC1=O [monomer 2] | > 50 | > 50 | > 50 | > 50 | –
CC(C)C[C@@H]1NC(=O)[C@@H](Cc2ccccc2)NC(=O)[C@H](Cc2c[nH]c3ccccc23)NC(=O)[C@@H](NC(=O)[C@@H](N)CC(C)C)CCNC(=O)[C@H]([C@@H](C)O)NC(=O)[C@H](CCN)NC(=O)[C@H](CCN)NC1=O [monomer 5] (H-L[Dab]W[dF]L[Dab][Dab]T; lactam 2-C) | > 50 | > 50 | > 50 | > 50 | –
CC(=O)N[C@@H](CCC(=O)O)C(=O)N[C@H](C(=O)N[C@@H](CCN)C(=O)N[C@H]1CCNC(=O)[C@H](Cn2cc(CC(=O)O)nn2)NC(=O)[C@H](CCN)NC(=O)[C@H](CCN)NC(=O)[C@H](Cc2ccc(O)cc2)NC(=O)[C@@H](Cc2ccccc2)NC(=O)[C@H](Cc2ccc(O)cc2)NC1=O)[C@@H](C)O [monomer 6] | > 50 | > 50 | > 50 | > 50 | –
CC(C)C[C@@H]1NC(=O)[C@@H](Cc2ccccc2)NC(=O)[C@H](Cc2c[nH]c3ccccc23)NC(=O)[C@@H](NC(=O)[C@@H](N)CCN)CCNC(=O)[C@H]([C@@H](C)O)NC(=O)[C@H](CCN)NC(=O)[C@H](Cc2c[nH]c3ccccc23)NC1=O [monomer 8] (H-[Dab][Dab]W[dF]LW[Dab]T; lactam 2-C) | > 50 | > 50 | > 50 | > 50 | antiviral effect, in words [4]: a hint of antiviral effect
CC(=O)N[C@@H](CCC(=O)O)C(=O)N[C@H](C(=O)N[C@@H](CCN)C(=O)N[C@H]1CCNC(=O)[C@H](Cn2cc(CC(=O)O)nn2)NC(=O)[C@H](CCN)NC(=O)[C@H](CCN)NC(=O)[C@H](CC(C)C)NC(=O)[C@@H](Cc2ccccc2)NC(=O)[C@H](Cc2ccc(O)cc2)NC1=O)[C@@H](C)O [monomer 9] | > 50 | > 50 | > 50 | > 50 | –
Ac-Glu(tBu)-Thr(tBu)-Dab(Boc)-Dab(H-Ala(N3))-Tyr(tBu)-dPhe-Leu-Dab(Boc)-Dab(Boc)-OH? | – | – | – | – | ring closure, isolated yield [1, 7]: 65%
Ac-Glu(tBu)-Thr(tBu)-Dab(Boc)-Dab(H-Ala(N3))-Tyr(tBu)-dPhe-Tyr(tBu)-Dab(Boc)-Dab(Boc)-OH? | – | – | – | – | ring closure, isolated yield [1, 7]: 48%
Ac-Leu-Thr(tBu)-Dab(Boc)-Dab(H-Ala(N3))-Ile-dPhe-Tyr(tBu)-Dab(Boc)-Dab(Boc)-OH? | – | – | – | – | ring closure, isolated yield [1, 7]: 74%
Ac-Leu-Thr(tBu)-Dab(Boc)-Dab(H-Ala(N3))-Ile-dPhe-Tyr(tBu)-Hse(Trt)-Hse(Trt)-OH? | – | – | – | – | ring closure, isolated yield [1, 7]: 90%
